For the assay, the system named is PC-9-EGFR-Del19-T790M-C797S cells. Nature of the assay: proliferation inhibition on PC-9-EGFR-Del19-T790M-C797S cells, sulforhodamine B method (SRB method). It counts as cell-based. The conditions noted are these: Homo sapiens, in vitro proliferation inhibition, 72 hours culture, final concentrations 2500 to 0.01nM. The procedure: The in vitro proliferation inhibition activity of the compound on PC-9-EGFR-Del19-T790M-C797Slcells where Del19/T790M/C797S triple mutation exists in exogenously stably overexpressed EGFR protein of human non-small cell lung cancer PC-9 was determined by sulforhodamine B method (SRB method).
Cell source: PC-9-EGFR-Del19-T790M-C797S cells were purchased from Nanjing Cobioer Biosciences Co., Ltd.
PC-9-EGFR-Del19-T790M-C797S cells were cultured in an RPMI1640 complete medium containing puromycin (2µg/ml) and 10% fetal bovine serum. PC-9-EGFR-Del19-T790M-C797S cells in a logarithmic growth phase were taken, seeded in a 96-well plate at a cell density of 5000 cells/135µL complete culture medium/well, placed in a thermostatic incubator containing 5% CO2 at 37°C and cultured for 24 hours to ensure complete anchorage of cells. Each compound was dissolved in dimethyl sulfoxide (DMSO) in advance to prepare a 10mM stock solution, and then the compound was successively diluted with DMSO and the complete culture medium. […]
GraphPad Prism 8.3 software was used for data analysis, and non-linear S-curve regression was used for fitting the data to obtain a dose-effect curve, from which an IC50 value was calculated, and the results are shown in Table 1.

One compound from EP4442684A1, “A CLASS OF PYRIMIDINE COMPOUNDS, AND PREPARATION METHOD THEREFOR AND USE THEREOF” (Shanghai Allist Pharmaceuticals Co., Ltd., priority 2021, dated 2023) can be followed below.

Usually IC50 stands for the point on the concentration scale where inhibition reaches its midpoint. Higher therefore signals weaker potency in that assay. In the case of `C=CC(=O)Nc1cc(Nc2nccc(-c3cn(C)c4ccccc34)n2)c(OCC(F)(F)F)nc1N(C)CC[N+](C)(C)[O-]` [Compound V], inhibition was half-maximal at 564 nM (IC50).
